Among the data in DBAASP are MIC values, retold here.

Among the test systems are Escherichia coli KF111; Escherichia coli KF130; Escherichia coli UB1005; Candida albicans; Aspergillus fumigatus; Escherichia coli ML-35; Bacillus megaterium Bm11.
What all share (test): ≥ marks a high value that may be exact or a test limit, other limits are often not marked, values filed in µg/mL are converted to µM
Experiment [1] concerns Escherichia coli ATCC 11219.
The subject of experiment [2] is Klebsiella pneumoniae ATCC 10031.
For experiment [3], the system named is Staphylococcus aureus ATCC 6538.
For experiment [4], the system named is Pseudomonas aeruginosa ATCC 13388.
The subject of experiment [5] is Salmonella enterica subsp. enterica serovar Typhimurium ATCC 14028.
Experiment [6] has as its system Pseudomonas aeruginosa H744.
Experiment [7] relates to Staphylococcus epidermidis.
In experiment [8] the test system is Pseudomonas aeruginosa H374.
For experiment [9], the system named is Pseudomonas aeruginosa K799.
Experiment [10] concerns Salmonella enterica subsp. enterica serovar Typhimurium ATCC 14028s.
Experiment [11] concerns Pseudomonas aeruginosa ATCC 27853.
Experiment [12] concerns Escherichia coli ATCC 25922.
In experiment [13] the test system is Pseudomonas aeruginosa ATCC 15442.
In experiment [14] the test system is Staphylococcus aureus ATCC 25923.
The subject of experiment [15] is Staphylococcus saprophyticus.
The test system of experiment [16] is Escherichia coli CCT 1371.
Experiment [17] relates to Bacillus subtilis CCT 2471.
Experiment [18] concerns Erwinia amylovora PMV 6076.
The subject of experiment [19] is Pseudomonas syringae pv. syringae EPS 94.
The subject of experiment [20] is Xanthomonas campestris pv. Vesicatoria 2133-2.

Values after ≈ are worked out from the molar mass of the structure shown.

Broadly, the MIC is the smallest concentration in the dilution series that meets the test's criterion for growth inhibition. Low values mean greater potency, high ones weaker potency. Consider `CC[C@H](C)[C@H](NC(=O)CN)C(=O)N[C@@H](Cc1cnc[nH]1)C(=O)N[C@@H](CCCCN)C(=O)N[C@H](C(=O)N[C@@H](CC(C)C)C(=O)N[C@@H](CCCCN)C(=O)N[C@@H](Cc1ccc(O)cc1)C(=O)NCC(=O)N[C@@H](CCCCN)C(=O)N1CCC[C@H]1C(=O)N[C@@H](CO)C(N)=O)[C@@H](C)CC` [GIHKILKYGKPS], for which the MIC stood at 5 µM (≈ 6.7 µg/mL) in experiment [1]; 5 µM (≈ 6.7 µg/mL) in experiment [2]; 10 µM (≈ 13.4 µg/mL) in [3]; 20 µM (≈ 26.8 µg/mL) in experiment [4]; 10 µM (≈ 13.4 µg/mL) in experiment [5].

Regarding `CC[C@H](C)[C@H](NC(=O)CN)C(=O)N[C@@H](CCCCN)C(=O)N[C@@H](CCCCN)C(=O)N[C@H](C(=O)N[C@@H](CC(C)C)C(=O)N[C@@H](CCCCN)C(=O)N[C@@H](Cc1ccc(O)cc1)C(=O)NCC(=O)N[C@@H](CCCCN)C(=O)N[C@@H](CCCCN)C(=O)N[C@@H](CO)C(N)=O)[C@@H](C)CC` [GIKKILKYGKKS], the MIC in [1] is 20 µM (≈ 27.2 µg/mL); in experiment [2] it was at least 50 µM; in experiment [3], 5 µM (≈ 6.81 µg/mL); in experiment [4] it was at least 50 µM; in experiment [5] it was 20 µM (≈ 27.2 µg/mL).

As to `CC[C@H](C)[C@H](NC(=O)[C@@H]1CCCN1C(=O)[C@H](CCCCN)NC(=O)[C@H](CC(C)C)NC(=O)[C@H](C)NC(=O)[C@@H](NC(=O)[C@@H](NC(=O)[C@H](CC(C)C)NC(=O)[C@@H](NC(=O)[C@H](CCCCN)NC(=O)[C@H](CCCCN)NC(=O)[C@H](C)NC(=O)[C@H](C)NC(=O)[C@H](CO)NC(=O)[C@@H](NC(=O)[C@H](CC(C)C)NC(=O)[C@H](CCCCN)NC(=O)[C@H](CCCCN)NC(=O)[C@H](CC(C)C)NC(=O)[C@H](Cc1ccccc1)NC(=O)[C@H](CO)NC(=O)[C@H](CCCCN)NC(=O)[C@H](Cc1c[nH]c2ccccc12)NC(=O)[C@@H](N)CCCCN)[C@@H](C)O)C(C)C)[C@@H](C)O)[C@@H](C)O)C(=O)N[C@@H](CO)C(=O)N[C@@H](CO)C(=O)O` [KWKSFLKKLTSAAKKVLTTALKPISS], the MIC worked out at 1.39 µM (≈ 4 µg/mL) in experiment [6]; 1.39 µM (≈ 4 µg/mL) in experiment [7]; 1.39 µM (≈ 4 µg/mL) in experiment [8]; 0.348 µM (≈ 1 µg/mL) in the experiment with Escherichia coli KF111; 0.348 µM (≈ 1 µg/mL) against Escherichia coli KF130; 2.78 µM (≈ 8 µg/mL) in [9]. For the same molecule, the MIC is 1.39 µM (≈ 4 µg/mL) in [10], 4 µM (≈ 11.5 µg/mL) in [11] and 0.348 µM (≈ 1 µg/mL) against Escherichia coli UB1005.

For `CC[C@H](C)[C@H](N)C(=O)N[C@@H](CC(N)=O)C(=O)N[C@@H](CC(C)C)C(=O)N[C@@H](CC(C)C)C(=O)N[C@@H](CCCCN)C(=O)N[C@H](C(=O)N[C@@H](C)C(=O)N[C@@H](CCCCN)C(=O)NCC(=O)N[C@H](C(=O)N[C@H](C(=O)N[C@@H](CCCCN)C(=O)N[C@@H](CO)C(=O)N[C@@H](CC(C)C)C(=O)O)[C@@H](C)CC)[C@@H](C)CC)[C@@H](C)CC` [INLLKIAKGIIKSL], the MIC was 16.4 µM (≈ 25 µg/mL) in experiment [12]; at least 65.6 µM in experiment [13]; 65.6 µM (≈ 100 µg/mL) in experiment [3]; at least 32.8 µM in [7]; over 65.6 µM with Candida albicans; 6.56 µM (≈ 10 µg/mL) in experiment [14]. The MIC in [15] is 16.4 µM (≈ 25 µg/mL); in experiment [16], at least 32.8 µM; in experiment [17], at least 65.6 µM.

With `CC(C)C[C@H](NC(=O)[C@H](Cc1ccccc1)NC(=O)[C@@H]1CCCN1C(=O)[C@H](Cc1c[nH]c2ccccc12)NC(=O)[C@H](CS)NC(=O)[C@@H](NC(=O)[C@H](Cc1c[nH]c2ccccc12)NC(=O)[C@@H]1CCCN1C(=O)[C@H](Cc1ccccc1)NC(=O)[C@H](CCCN=C(N)N)NC(=O)[C@H](CCCN=C(N)N)NC(=O)[C@@H](N)CCCN=C(N)N)C(C)C)C(=O)N[C@@H](CCCN=C(N)N)C(=O)N[C@@H](CCCN=C(N)N)C(=O)N[C@@H](CCCN=C(N)N)C(=O)O` [RRRFPWVCWPFLRRR], the results for the MIC with Aspergillus fumigatus and in the experiment with Candida albicans were at least 117 µM and 469 µM (≈ 1000 µg/mL), respectively.

As for `CC[C@H](C)[C@H](NC(=O)[C@H](CCCCN)NC(=O)[C@H](CCCCN)NC(=O)[C@H](CCCN=C(N)N)NC(=O)[C@H](CC(C)C)NC(=O)[C@H](CCCN=C(N)N)NC(=O)[C@H](CCCN=C(N)N)NC(=O)[C@H](CC(C)C)NC(=O)[C@H](CC(C)C)NC(=O)CN)C(=O)NCC(=O)N[C@@H](CCC(=O)O)C(=O)N[C@H](C(=O)N[C@@H](Cc1ccccc1)C(=O)N[C@@H](CCCCN)C(=O)N[C@@H](CCCCN)C(=O)N[C@@H](Cc1ccc(O)cc1)C(=O)NCC(=O)O)[C@@H](C)CC` [GLLRRLRKKIGEIFKKYG], the MIC in [14] is 4 µM (≈ 8.7 µg/mL); with Escherichia coli ML-35, 2 µM (≈ 4.35 µg/mL); against Bacillus megaterium Bm11, 4 µM (≈ 8.7 µg/mL); in experiment [5], 1 µM (≈ 2.18 µg/mL).

For the molecule `CC[C@H](C)[C@H](NC(=O)[C@@H]1CCCN1C(=O)[C@H](CCCCN)NC(=O)[C@H](CC(C)C)NC(=O)[C@H](C)NC(=O)[C@@H](NC(=O)[C@H](Cc1ccc(O)cc1)NC(=O)[C@H](Cc1ccccc1)NC(=O)[C@@H](NC(=O)[C@@H](NC(=O)[C@H](CCCCN)NC(=O)[C@@H](NC(=O)[C@@H]1CCCN1C(=O)[C@H](CO)NC(=O)[C@H](CCCCN)NC(=O)[C@H](Cc1ccccc1)NC(=O)[C@@H](NC(=O)[C@H](CCCCN)NC(=O)[C@H](CC(C)C)NC(=O)[C@H](Cc1ccccc1)NC(=O)[C@H](CO)NC(=O)[C@H](CCCCN)NC(=O)[C@H](Cc1c[nH]c2ccccc12)NC(=O)[C@@H](N)CCCCN)[C@@H](C)O)C(C)C)[C@@H](C)O)C(C)C)[C@@H](C)O)C(=O)N[C@@H](CO)C(=O)N[C@@H](CO)C(=O)O` [KWKSFLKTFKSPVKTVFYTALKPISS], the MIC worked out at 10.6 µM (≈ 32 µg/mL) in experiment [6]; 10.6 µM (≈ 32 µg/mL) in [7]; 10.6 µM (≈ 32 µg/mL) in experiment [8]; 1.32 µM (≈ 4 µg/mL) in the experiment with Escherichia coli KF111; 1.32 µM (≈ 4 µg/mL) against Escherichia coli KF130; 10.6 µM (≈ 32 µg/mL) in experiment [9]. Moreover, the MIC turned out to be 5.28 µM (≈ 16 µg/mL) in experiment [10], 8 µM (≈ 24.3 µg/mL) in experiment [11] and 0.659 µM (≈ 2 µg/mL) against Escherichia coli UB1005.

For the molecule `CC[C@H](C)[C@H](NC(=O)[C@H](CCCCN)NC(=O)[C@H](CCCCN)NC(=O)[C@H](Cc1ccccc1)NC(=O)[C@H](CC(C)C)NC(=O)[C@H](CCCCN)NC(=O)[C@@H](N)CCCCN)C(=O)N[C@@H](CC(C)C)C(=O)N[C@@H](CCCCN)C(=O)N[C@@H](Cc1ccc(O)cc1)C(=O)N[C@@H](CC(C)C)C(=O)O` [KKLFKKILKYL], the values for the MIC in [18], in experiment [19] and in experiment [20] were 8.66 µM (≈ 12.3 µg/mL), 8.66 µM (≈ 12.3 µg/mL) and 14.1 µM (≈ 20.1 µg/mL), respectively.

In the case of `CC[C@H](C)[C@H](NC(=O)CNC(=O)[C@@H](N)Cc1c[nH]c2ccccc12)C(=O)N[C@@H](CCCN=C(N)N)C(=O)N[C@@H](CC(=O)O)C(=O)N[C@H](C(=O)N[C@@H](CC(C)C)C(=O)N[C@@H](CCCCN)C(=O)N[C@@H](Cc1ccc(O)cc1)C(=O)NCC(=O)N[C@@H](CCCCN)C(=O)N1CCC[C@H]1C(=O)N[C@@H](CO)C(=O)O)[C@@H](C)CC` [WGIRDILKYGKPS], the MIC amounted to 15 µM (≈ 23 µg/mL) in experiment [1]; 30 µM (≈ 46 µg/mL) in [2]; 15 µM (≈ 23 µg/mL) in [3]; 5 µM (≈ 7.66 µg/mL) in [4]; 8 µM (≈ 12.3 µg/mL) in experiment [5].

Take `CC(C)C[C@H](NC(=O)[C@H](Cc1cnc[nH]1)NC(=O)[C@H](CCC(=O)O)NC(=O)[C@H](Cc1c[nH]c2ccccc12)NC(=O)[C@H](CC(=O)O)NC(=O)[C@H](CCCCN)NC(=O)[C@H](CC(C)C)NC(=O)[C@H](Cc1cnc[nH]1)NC(=O)[C@H](CCC(=O)O)NC(=O)[C@H](Cc1c[nH]c2ccccc12)NC(=O)[C@H](CC(=O)O)NC(=O)[C@H](CCCCN)NC(=O)[C@H](CC(C)C)NC(=O)[C@H](Cc1cnc[nH]1)NC(=O)[C@H](CCC(=O)O)NC(=O)[C@H](Cc1c[nH]c2ccccc12)NC(=O)[C@H](CC(=O)O)NC(=O)[C@@H](N)CCCCN)C(=O)O` [KDWEHLKDWEHLKDWEHL]: the MIC in experiment [18], in experiment [19] and in experiment [20] was at least 100 µM each time.
